We go through 29 compounds from patent US9828360B2 (Array BioPharma Inc., priority 2012, dated 2017).

The test deals with TrkA (Homo sapiens, UniProt P04629). The test can be described thus: TrkA LanthaScreen Eu Kinase Binding Assay. The note with it: averaged IC50 values, read-out: TrkA Enzyme IC50. More on the design: 6HIS tagged cytoplasmic domain from Invitrogen, Cat. No. PV3144; purchased Invitrogen PV3144. Here is the method: TrkA binding activity was determined in a TrkA LanthaScreen™ Eu Kinase Binding Assay. 5 nM His-tagged recombinant human TrkA (6HIS tagged cytoplasmic domain from Invitrogen, Cat. No. PV3144) was incubated with 4 nM Alexa-Fluor® Tracer 236 (Invitrogen Cat. No. PV5592), 2 nM biotinylated anti-His (Invitrogen Cat. No. PV6090), and 2 nM europium-labeled Streptavidin (Invitrogen Cat. No. PV5899), in buffer (25 mM MOPS, pH 7.5, 5 mM MgCl2, 0.005% Triton X-100). Three fold serial dilutions of compounds of the invention in DMSO were added to a final percentage of 2% DMSO. After 60-minute incubation at 22° C., the reaction was measured using the EnVision mutlimode plate reader (PerkinElmer) via TR-FRET dual wavelength detection at […]. The percent of control was calculated using a ratiometric emission factor. The IC50 values were determined by fitting a four parameter model to the percent of control data.
TrkA, sequence (P04629 440-796 limits assumed): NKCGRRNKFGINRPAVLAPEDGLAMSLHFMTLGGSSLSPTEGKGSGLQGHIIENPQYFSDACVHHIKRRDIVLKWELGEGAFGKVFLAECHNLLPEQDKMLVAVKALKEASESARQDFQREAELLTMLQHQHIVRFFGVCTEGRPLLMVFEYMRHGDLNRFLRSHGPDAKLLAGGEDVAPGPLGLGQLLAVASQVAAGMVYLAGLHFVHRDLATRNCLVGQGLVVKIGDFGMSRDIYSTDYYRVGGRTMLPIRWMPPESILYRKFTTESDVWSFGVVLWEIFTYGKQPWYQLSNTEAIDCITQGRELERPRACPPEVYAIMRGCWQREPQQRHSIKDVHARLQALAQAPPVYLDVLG
Table A provides averaged IC50 values for compounds of the invention when tested in the assay of Example A, where A represents an averaged IC50 value <100 nM; and B represents an averaged IC50 value from 100 to 1,000 nM.
As to `COCCN1C[C@@H](NC(=O)Nc2cccnc2-c2ccccc2)[C@H](c2ccccc2)C1` (relative stereo) [Example 1, 1-(trans-1-(2-methoxyethyl)-4-phenylpyrrolidin-3-yl)-3-(2-phenylpyridin-3-yl)urea], the IC50 was below 100 nM.

For `COCCN1C[C@@H](NC(=O)Nc2cc(Cl)cnc2-c2ccccc2)[C@H](c2ccccc2)C1` (relative stereo) [Example 2, 1-(5-chloro-2-phenylpyridin-3-yl)-3-(trans-1-(2-methoxyethyl)-4-phenylpyrrolidin-3-yl)urea], the IC50 was below 100 nM.

For the compound `COCCN1C[C@@H](NC(=O)Nc2cc(Br)cnc2-c2ccccc2)[C@H](c2ccccc2)C1` (relative stereo) [Example 3], the IC50 is below 100 nM.

For the compound `COCCN1C[C@@H](NC(=O)Nc2cc(S(C)(=O)=O)cnc2-c2ccccc2)[C@H](c2ccccc2)C1` (relative stereo) [Example 4, 1-(trans-1-(2-methoxyethyl)-4-phenylpyrrolidin-3-yl)-3-(5-(methylsulfonyl)-2-phenylpyridin-3-yl)urea], the IC50 was in the range of 100 to 1000 nM.

For `COCCN1C[C@@H](NC(=O)Nc2c(-c3ccccc3)noc2C)[C@H](c2ccccc2)C1` (relative stereo) [Example 37, 1-((trans)-1-(2-methoxyethyl)-4-phenylpyrrolidin-3-yl)-3-(5-methyl-3-phenylisoxazol-4-yl)urea], the IC50 is 100 to 1000 nM.

In the case of `COCCN1C[C@@H](NC(=O)Nc2cc(Br)cnc2-c2ccccc2)[C@H](c2ccccc2)C1` [Example 5, 1-(5-bromo-2-phenylpyridin-3-yl)-3-((3S,4R)-1-(2-methoxyethyl)-4-phenylpyrrolidin-3-yl)urea], the half-maximal inhibitory concentration (IC50) was below 100 nM.

As for `COCCN1C[C@@H](NC(=O)Nc2cc(Br)cnc2-c2ccccc2)[C@H](c2ccc(F)c(F)c2)C1` [Example 6, 1-(5-bromo-2-phenylpyridin-3-yl)-3-((3S,4R)-4-(3,4-difluorophenyl)-1-(2-methoxyethyl)pyrrolidin-3-yl)urea], the IC50 was below 100 nM.

On to `COCCN1C[C@@H](NC(=O)Nc2cc(-c3ccccc3)cnc2-c2ccccc2)[C@H](c2ccccc2)C1` [Example 7, 1-(2,5-diphenylpyridin-3-yl)-3-((3S,4R)-1-(2-methoxyethyl)-4-phenylpyrrolidin-3-yl)urea], for which the IC50 is below 100 nM.

As for `COCCN1C[C@@H](NC(=O)Nc2ccc(-c3ccccc3)nc2C)[C@H](c2ccccc2)C1` [Example 8, 1-((3S,4R)-1-(2-methoxyethyl)-4-phenylpyrrolidin-3-yl)-3-(2-methyl-6-phenylpyridin-3-yl)urea], the IC50 lay within 100 to 1000 nM.

On to `COCCN1C[C@@H](NC(=O)Nc2ccc(-c3ccccc3)nc2C)[C@H](c2ccc(F)c(F)c2)C1` [Example 9, 1-((3S,4R)-4-(3,4-difluorophenyl)-1-(2-methoxyethyl)pyrrolidin-3-yl)-3-(2-methyl-6-phenylpyridin-3-yl)urea], for which the half-maximal inhibitory concentration (IC50) lay in the range of 100 to 1000 nM.

With `COCCN1C[C@@H](NC(=O)Nc2cc(-c3ccccc3)cnc2C)[C@H](c2ccc(F)c(F)c2)C1` [Example 10, 1-((3S,4R)-4-(3,4-difluorophenyl)-1-(2-methoxyethyl)pyrrolidin-3-yl)-3-(2-methyl-5-phenylpyridin-3-yl)urea], the concentration for half-maximal inhibition (IC50) was in the range of 100 to 1000 nM.

On to `COCCN1C[C@@H](NC(=O)Nc2ccc(Br)nc2-c2ccccc2)[C@H](c2ccc(F)c(F)c2)C1` [Example 11, 1-(6-bromo-2-phenylpyridin-3-yl)-3-((3S,4R)-4-(3,4-difluorophenyl)-1-(2-methoxyethyl)pyrrolidin-3-yl)urea], for which the IC50 is below 100 nM.

As to `COCCN1C[C@@H](NC(=O)Nc2ccc(S(C)(=O)=O)nc2-c2ccccc2)[C@H](c2ccc(F)c(F)c2)C1` [Example 12, 1-((3S,4R)-4-(3,4-difluorophenyl)-1-(2-methoxyethyl)pyrrolidin-3-yl)-3-(6-(methylsulfonyl)-2-phenylpyridin-3-yl)urea], the half-maximal inhibitory concentration (IC50) is below 100 nM.

For the compound `COCCN1C[C@@H](NC(=O)Nc2cc(S(C)(=O)=O)cnc2-c2ccccc2)[C@H](c2ccc(F)c(F)c2)C1` [Example 13, 1-((3S,4R)-4-(3,4-difluorophenyl)-1-(2-methoxyethyl)pyrrolidin-3-yl)-3-(5-(methylsulfonyl)-2-phenylpyridin-3-yl)urea], the IC50 was below 100 nM.

With `COCCN1C[C@@H](NC(=O)Nc2ccc(-c3cccnc3)nc2C)[C@H](c2ccc(F)c(F)c2)C1` [Example 14, 1-((3S,4R)-4-(3,4-difluorophenyl)-1-(2-methoxyethyl)pyrrolidin-3-yl)-3-(6-methyl-[2,3′-bipyridin]-5-yl)urea], the IC50 is below 100 nM.

In the case of `COCCN1C[C@@H](NC(=O)Nc2cc(-c3cccnc3)cnc2C)[C@H](c2ccc(F)c(F)c2)C1` [Example 15, 1-((3S,4R)-4-(3,4-difluorophenyl)-1-(2-methoxyethyl)pyrrolidin-3-yl)-3-(6-methyl-[3,3′-bipyridin]-5-yl)urea], the IC50 lay within 100 to 1000 nM.

For `COCCN1C[C@@H](NC(=O)Nc2ccc(OC)nc2-c2ccccc2)[C@H](c2ccc(F)c(F)c2)C1` [Example 16, 1-((3S,4R)-4-(3,4-difluorophenyl)-1-(2-methoxyethyl)pyrrolidin-3-yl)-3-(6-methoxy-2-phenylpyridin-3-yl)urea], the IC50 was below 100 nM.

On to `COCCN1C[C@@H](NC(=O)Nc2ccc(-c3ccc(S(C)(=O)=O)cc3)nc2C)[C@H](c2ccc(F)c(F)c2)C1` [Example 17, 1-((3S,4R)-4-(3,4-difluorophenyl)-1-(2-methoxyethyl)pyrrolidin-3-yl)-3-(2-methyl-6-(4-(methylsulfonyl)phenyl)pyridin-3-yl)urea], for which the half-maximal inhibitory concentration (IC50) was 100 to 1000 nM.

As to `COCCN1C[C@@H](NC(=O)Nc2ccc(-c3cccc(S(C)(=O)=O)c3)nc2C)[C@H](c2ccc(F)c(F)c2)C1` [Example 18, 1-((3S,4R)-4-(3,4-difluorophenyl)-1-(2-methoxyethyl)pyrrolidin-3-yl)-3-(2-methyl-6-(3-(methylsulfonyl)phenyl)pyridin-3-yl)urea], the IC50 is 100 to 1000 nM.

For the compound `COCCN1C[C@@H](NC(=O)Nc2cccnc2-c2ccccc2)[C@H](c2ccc(F)c(F)c2)C1` [Example 19, 1-((3S,4R)-4-(3,4-difluorophenyl)-1-(2-methoxyethyl)pyrrolidin-3-yl)-3-(2-phenylpyridin-3-yl)urea], the IC50 was below 100 nM.

On to `COCCN1C[C@@H](NC(=O)Nc2ccc(=O)[nH]c2-c2ccccc2)[C@H](c2ccc(F)c(F)c2)C1` [Example 20, 1-((3S,4R)-4-(3,4-difluorophenyl)-1-(2-methoxyethyl)pyrrolidin-3-yl)-3-(6-oxo-2-phenyl-1,6-dihydropyridin-3-yl)urea], for which the IC50 was below 100 nM.

For `COCCN1C[C@@H](NC(=O)Nc2ccc(Cl)nc2-c2ccccc2)[C@H](c2ccc(F)c(F)c2)C1` [Example 21, 1-(6-chloro-2-phenylpyridin-3-yl)-3-((3S,4R)-4-(3,4-difluorophenyl)-1-(2-methoxyethyl)pyrrolidin-3-yl)urea], the IC50 was below 100 nM.

As to `COCCN1C[C@@H](NC(=O)Nc2ccc(S(=O)(=O)C3CC3)nc2-c2ccccc2)[C@H](c2ccc(F)c(F)c2)C1` [Example 22, 1-(6-(cyclopropylsulfonyl)-2-phenylpyridin-3-yl)-3-((3S,4R)-4-(3,4-difluorophenyl)-1-(2-methoxyethyl)pyrrolidin-3-yl)urea], the half-inhibitory concentration (IC50) is below 100 nM.

Turning to `COCCN1C[C@@H](NC(=O)Nc2cncnc2-c2ccccc2)[C@H](c2ccc(F)c(F)c2)C1` [Example 23, 1-((3S,4R)-4-(3,4-difluorophenyl)-1-(2-methoxyethyl)pyrrolidin-3-yl)-3-(4-phenylpyrimidin-5-yl)urea], the IC50 is below 100 nM.

On to `COCCN1C[C@@H](NC(=O)Nc2ccc(C#N)nc2-c2ccccc2)[C@H](c2ccc(F)c(F)c2)C1` [Example 24, 1-(6-cyano-2-phenylpyridin-3-yl)-3-((3S,4R)-4-(3,4-difluorophenyl)-1-(2-methoxyethyl)pyrrolidin-3-yl)urea], for which the IC50 is below 100 nM.

As for `CCOc1ccc(NC(=O)N[C@@H]2CN(CCOC)C[C@H]2c2ccc(F)c(F)c2)c(-c2ccccc2)n1` [Example 25], the IC50 was below 100 nM.

Consider `COCCN1C[C@@H](NC(=O)Nc2cc(OC)cnc2-c2ccccc2)[C@H](c2ccc(F)c(F)c2)C1` [Example 26, 1-((3S,4R)-4-(3,4-difluorophenyl)-1-(2-methoxyethyl)pyrrolidin-3-yl)-3-(5-methoxy-2-phenylpyridin-3-yl)urea], for which the IC50 is below 100 nM.

`COCCOc1ccc(NC(=O)N[C@@H]2CN(CCOC)C[C@H]2c2ccc(F)c(F)c2)c(-c2ccccc2)n1` [Example 27, 1-((3S,4R)-4-(3,4-difluorophenyl)-1-(2-methoxyethyl)pyrrolidin-3-yl)-3-(6-(2-methoxyethoxy)-2-phenylpyridin-3-yl)urea]: the IC50 is below 100 nM.

Take `CCc1ccc(NC(=O)N[C@@H]2CN(CCOC)C[C@H]2c2ccc(F)c(F)c2)c(-c2ccccc2)n1` [Example 28, 1-((3S,4R)-4-(3,4-difluorophenyl)-1-(2-methoxyethyl)pyrrolidin-3-yl)-3-(6-ethyl-2-phenylpyridin-3-yl)urea]: the 50% inhibitory concentration (IC50) was below 100 nM.
